From PubChem BioAssay (NCI)
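A five-concentration, 48-hour dose response in 96-well plates underlies each endpoint, interpolated linearly between surrounding concentrations. GI50 is the concentration that inhibits growth by half. TGI is the concentration that stops growth completely.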

Tests used:
Assay in all cases: inhibition of tumour cell growth, NCI panel, 48 h
SF-539 CNS = test system: SF-539 CNS
SK-MEL-5 melanoma = test system: SK-MEL-5 melanoma
M14 melanoma = test system: M14 melanoma
HS 578T breast = test system: HS 578T breast
NCI/ADR-RES ovarian = test system: NCI/ADR-RES ovarian
SF-268 CNS = test system: SF-268 CNS
SK-MEL-2 melanoma = test system: SK-MEL-2 melanoma
U251 CNS = test system: U251 CNS
TK-10 renal = test system: TK-10 renal
LOX IMVI melanoma = test system: LOX IMVI melanoma

Row | SMILES | TGI (SF-539 CNS) [µM] | TGI (SK-MEL-5 melanoma) [µM] | TGI (M14 melanoma) [µM] | TGI (HS 578T breast) [µM] | TGI (NCI/ADR-RES ovarian) [µM] | TGI (SF-268 CNS) [µM] | TGI (SK-MEL-2 melanoma) [µM] | TGI (U251 CNS) [µM] | TGI (TK-10 renal) [µM] | TGI (LOX IMVI melanoma) [µM] | GI50 (SF-539 CNS) [µM] | GI50 (SK-MEL-5 melanoma) [µM] | GI50 (M14 melanoma) [µM] | GI50 (HS 578T breast) [µM] | GI50 (NCI/ADR-RES ovarian) [µM] | GI50 (SF-268 CNS) [µM] | GI50 (SK-MEL-2 melanoma) [µM] | GI50 (U251 CNS) [µM] | GI50 (TK-10 renal) [µM] | GI50 (LOX IMVI melanoma) [µM]
1 | COC(=O)C1=C(C)NC(C)=C([N+](=O)[O-])C1c1cccc(N=O)c1 (stereo not drawn) | 30.9 | 29.6 | 25.8 | 39.1 | 45.9 | 32 | 33.8 | 32 | 25.4 | 30 | – | – | – | – | – | – | – | – | – | –
2 | c1ccc(C2=Nn3c(CCCCCCCCc4nnc5n4N=C(c4ccccc4)CS5)nnc3SC2)cc1 | 46.4 | > 100 | > 100 | > 100 | > 100 | > 81.8 | > 88.7 | 36.8 | 79 | > 100 | – | – | – | – | – | – | – | – | – | –
3 | CSC(SC)=C1C(=O)N(c2ccccc2)N=C1C | > 100 | 24.3 | 60.8 | > 100 | > 100 | > 100 | 46.8 | > 100 | > 100 | > 100 | – | – | – | – | – | – | – | – | – | –
4 | COc1cc([C@@H]2c3cc4c(cc3[C@@H](c3c(O)cc(O)c5c3O[C@H](c3ccc(O)c(O)c3)[C@@H](O)C5)[C@H]3COC(=O)[C@H]23)OCO4)cc(OC)c1O | > 100 | > 100 | > 100 | > 100 | > 100 | > 100 | > 100 | > 100 | > 100 | > 100 | – | – | – | – | – | – | – | – | – | –
5 | COc1ccc(N=Nc2c3c(c(O)c4ccccc24)CCC(C)(C)O3)cc1 | 62.3 | 24.9 | 39.3 | 66.7 | > 100 | 31.5 | 40.3 | 37.9 | 65.8 | 29.9 | – | – | – | – | – | – | – | – | – | –
6 | O=C1CCc2ccc3c(c21)CC1(Cc2ccccc2C1)C3 | > 100 | 11.4 | > 100 | > 100 | 53.6 | > 100 | 38.7 | 74 | 99.3 | 20.1 | – | – | – | – | – | – | – | – | – | –
7 | COc1ccc(-c2csc(NC(=O)CSc3nc(C)c(-c4ccccc4)n3Nc3ccccc3)n2)cc1 | > 100 | > 100 | > 100 | > 100 | > 100 | > 100 | > 100 | > 100 | > 100 | > 100 | > 100 | 4.45 | 8.66 | 6.69 | 4.21 | 9.05 | 9.52 | > 100 | > 100 | 5.85
8 | Cc1c2ccncc2c(C)c2c1[nH]c1ccccc12 | 2.11 | 2.01 | 2.33 | 5.45 | 2.93 | 3.38 | 6.79 | 2.08 | 2.6 | 4.2 | – | – | 0.979 | 1.37 | – | – | – | – | 0.79 | –
9 | O=C(O)c1ccc2c(c1)CC1(C2)Cc2cc3c(cc2C1=O)CCC3 (stereo not drawn) | > 100 | > 100 | > 100 | > 100 | > 100 | > 100 | > 100 | > 100 | > 100 | > 100 | – | – | – | – | – | – | – | – | – | –
10 | OC1(c2ccc(Cl)cc2)c2ccc(CN3CCCC3)cc2C2=NCCN21 (stereo not drawn) | 25.9 | 22.3 | 12.8 | 26 | > 100 | 29.7 | 34.2 | 27.2 | 17.4 | 29.1 | – | – | – | – | – | – | – | – | – | –
11 | CC/C(Cl)=N\OC(=O)Nc1ccc(F)c([N+](=O)[O-])c1 | > 100 | 29.5 | > 53.6 | 31.7 | 75.8 | 36.4 | 32 | 46.3 | 26.1 | > 48.9 | – | – | – | – | – | – | – | – | – | –
12 | O=C1CS(=O)C23c4cc5ccccc5n4CCC2CCCN13 (stereo not drawn) | > 100 | > 100 | > 100 | > 100 | > 100 | > 100 | > 100 | > 100 | > 100 | > 100 | – | – | – | – | – | – | – | – | – | –
13 | COc1ccc(N=C2C(=S)N(c3ccc(OC)cc3)/C(=N/S(=O)(=O)c3ccccc3)N2c2ccccc2)cc1 | 25.1 | 11.1 | 12.2 | > 66.1 | > 71.4 | 29.2 | 25.5 | 28.8 | 28.3 | 16.9 | – | – | – | – | – | – | – | – | – | –
